Tested on: Zika virus
Experiment: Antiviral activity against Zika virus Z16019 infected in human A549 cells assessed as reduction in viral titer preincubated for 1 hr followed by compound washout and subsequent compound addition without virus and measured after 48 hrs by plaque assay
Type: functional, organism-based
Details: Zika virus, Z16019, A549; read-out: EC50; call rule not given here

| Compound | EC50 |
| --- | --- |
| CC(C)=C[C@H]1C[C@]2(C)[C@H](CC[C@@]3(C)[C@H]2CC[C@H]2Cc4c([nH]c5ccccc45)[C@@]23C)O1 | 4.2 µM |
| C#C[C@@]1(O)[C@H](O)[C@@H](CO)O[C@H]1n1ccc2c(N)ncnc21 | 15 µM |
| O=C(C(=O)c1c[nH]c2ccccc12)c1c[nH]c2ccccc12 | 5 µM |
| O=C1c2ccccc2NC1(c1c[nH]c2ccccc12)c1c[nH]c2ccccc12 | 22 µM |
| CC(C)=C[C@H]1C[C@]2(C)[C@H](CC[C@@]3(C)[C@H]2CC[C@H]2CC(=O)c4ccccc4NC(=O)O[C@@]23C)O1 | 12 µM |
| COC(=O)Cc1c(-c2cc3ccccc3[nH]2)[nH]c2ccccc12 | 50 µM |
| CC(=O)OCC(=O)O[C@H]1CC[C@@]2(C)[C@@H](CC[C@H]3Cc4c([nH]c5ccccc45)[C@@]32C)[C@]1(C)CCC=C(C)C | 7.5 µM |
| O=C(Cc1c[nH]c2ccccc12)OCCc1c[nH]c2ccccc12 | 38 µM |
| CC(=O)C(C)(c1c[nH]c2ccccc12)c1c[nH]c2ccccc12 | 18 µM |
| CC(C)=C[C@H]1C[C@]2(C)[C@H](CC[C@@]3(C)[C@H]2CC[C@H]2CC(=O)c4ccccc4NC(=O)[C@@]23C)O1 [ASPORYZIN A] | 18 µM |

Same assay, conditions: a549

| Compound | EC50 |
| --- | --- |
| C[S+]([O-])CCC(c1c[nH]c2ccccc12)c1c[nH]c2ccccc12 (stereo unspecified) | Not Active |
| Nc1ccccc1CC(c1c[nH]c2ccccc12)c1c[nH]c2ccccc12 | Not Active |
| CC(C)=CCC[C@]1(C)[C@@H](O)CC[C@@]2(C)[C@H]1CC[C@H]1Cc3c([nH]c4ccccc34)[C@@]12C [EMINDOLE SB] | Not Active |

Tested on: MDA-MB-231
Experiment: Cytotoxicity against human MDA-MB-231 cells assessed as reduction in cell viability by MTT assay
Type: cell-based
Details: not given

| Compound | IC50 |
| --- | --- |
| CC(C)=CCC[C@]1(C)[C@@H](O)CC[C@@]2(C)[C@H]1CC[C@H]1Cc3c([nH]c4ccccc34)[C@@]12C [EMINDOLE SB] | 3.2 µM |

Tested on: A549
Experiment: Cytotoxicity against human A549 cells assessed as reduction in cell viability by MTT assay
Type: cell-based
Details: not given

| Compound | IC50 |
| --- | --- |
| O=C(c1c[nH]c2ccccc12)c1nccc2c1[nH]c1ccccc12 | 6.3 µM |
| CC(C)=CCC[C@]1(C)[C@@H](O)CC[C@@]2(C)[C@H]1CC[C@H]1Cc3c([nH]c4ccccc34)[C@@]12C [EMINDOLE SB] | 4.4 µM |
